Data published in PubChem BioAssay (NCI).
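Growth conditions: 96-well plates. Treatment: test compound, 48 hours, 5 concentrations. Analysis: linear interpolation between bracketing concentrations; unreached endpoints set to highest concentration. GI50 is the concentration that inhibits growth by half. TGI: total growth inhibition.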

What was measured:
Assay in all cases: inhibition of tumour cell growth, NCI panel, 48 h
A498 renal = test system: A498 renal
K-562 leukemia = test system: K-562 leukemia
RPMI-8226 leukemia = test system: RPMI-8226 leukemia
SW-620 colon = test system: SW-620 colon
SF-539 CNS = test system: SF-539 CNS
SR leukemia = test system: SR leukemia
PC-3 prostate = test system: PC-3 prostate
RXF 393 renal = test system: RXF 393 renal
MOLT-4 leukemia = test system: MOLT-4 leukemia
A549 NSCLC = test system: A549 NSCLC
DU-145 prostate = test system: DU-145 prostate
TK-10 renal = test system: TK-10 renal
CCRF-CEM leukemia = test system: CCRF-CEM leukemia
NCI-H226 lung = test system: NCI-H226 lung
OVCAR-3 ovarian = test system: OVCAR-3 ovarian
SF-268 CNS = test system: SF-268 CNS
OVCAR-8 ovarian = test system: OVCAR-8 ovarian
KM12 colon = test system: KM12 colon
HL-60(TB) leukemia = test system: HL-60(TB) leukemia
OVCAR-4 ovarian = test system: OVCAR-4 ovarian
SNB-19 CNS = test system: SNB-19 CNS
COLO 205 colon = test system: COLO 205 colon
M14 melanoma = test system: M14 melanoma
T-47D breast = test system: T-47D breast
HS 578T breast = test system: HS 578T breast
SK-OV-3 ovarian = test system: SK-OV-3 ovarian
786-0 renal = test system: 786-0 renal
CAKI-1 renal = test system: CAKI-1 renal
LOX IMVI melanoma = test system: LOX IMVI melanoma
BT-549 breast = test system: BT-549 breast
MALME-3M melanoma = test system: MALME-3M melanoma
MDA-MB-231 breast = test system: MDA-MB-231 breast
NCI/ADR-RES ovarian = test system: NCI/ADR-RES ovarian
SK-MEL-5 melanoma = test system: SK-MEL-5 melanoma
NCI-H23 lung = test system: NCI-H23 lung
UACC-257 melanoma = test system: UACC-257 melanoma
OVCAR-5 ovarian = test system: OVCAR-5 ovarian
MCF7 breast = test system: MCF7 breast
UO-31 renal = test system: UO-31 renal
IGROV1 ovarian = test system: IGROV1 ovarian
SF-295 CNS = test system: SF-295 CNS
SK-MEL-2 melanoma = test system: SK-MEL-2 melanoma
SK-MEL-28 melanoma = test system: SK-MEL-28 melanoma
HCT-116 colon = test system: HCT-116 colon
EKVX NSCLC = test system: EKVX NSCLC
NCI-H460 lung = test system: NCI-H460 lung
MDA-MB-435 = test system: MDA-MB-435
UACC-62 melanoma = test system: UACC-62 melanoma
U251 CNS = test system: U251 CNS
NCI-H522 lung = test system: NCI-H522 lung
SN12C renal = test system: SN12C renal
HOP-62 NSCLC = test system: HOP-62 NSCLC

## N#CC1=C(N)NC(=S)NC12Nc1ccccc1N2
A498 renal
  GI50: 20 µM
  TGI: 43.5 µM
K-562 leukemia
  GI50: 28.1 µM
  TGI: > 100 µM
RPMI-8226 leukemia
  GI50: 21.7 µM
  TGI: > 100 µM
SW-620 colon
  GI50: 59.5 µM
  TGI: > 100 µM
SF-539 CNS
  GI50: 42.4 µM
  TGI: > 100 µM
SR leukemia
  GI50: 6.18 µM
  TGI: > 100 µM
PC-3 prostate
  GI50: 28.5 µM
  TGI: > 100 µM
RXF 393 renal
  GI50: > 100 µM
  TGI: > 100 µM
MOLT-4 leukemia
  GI50: 22.2 µM
  TGI: > 100 µM
A549 NSCLC
  GI50: 37.6 µM
  TGI: > 100 µM
DU-145 prostate
  GI50: 65.3 µM
  TGI: > 100 µM
TK-10 renal
  GI50: 46.4 µM
  TGI: > 100 µM
CCRF-CEM leukemia
  GI50: 18.2 µM
  TGI: > 100 µM
NCI-H226 lung
  GI50: 20.6 µM
  TGI: 88.2 µM
OVCAR-3 ovarian
  GI50: 22 µM
  TGI: > 100 µM
SF-268 CNS
  GI50: 18.6 µM
  TGI: > 100 µM
OVCAR-8 ovarian
  GI50: 38.6 µM
  TGI: > 100 µM
KM12 colon
  GI50: 23.6 µM
  TGI: > 100 µM
HL-60(TB) leukemia
  GI50: 20.8 µM
  TGI: > 100 µM
OVCAR-4 ovarian
  GI50: > 100 µM
  TGI: > 100 µM
SNB-19 CNS
  GI50: 90.1 µM
  TGI: > 100 µM
COLO 205 colon
  GI50: 32.6 µM
  TGI: > 100 µM
M14 melanoma
  GI50: 40 µM
  TGI: > 100 µM
T-47D breast
  GI50: 69.7 µM
  TGI: > 100 µM
HS 578T breast
  GI50: 68.9 µM
  TGI: > 100 µM
SK-OV-3 ovarian
  GI50: 61 µM
  TGI: > 100 µM
786-0 renal
  GI50: 51.7 µM
  TGI: > 100 µM
CAKI-1 renal
  GI50: 19.8 µM
  TGI: > 100 µM
LOX IMVI melanoma
  GI50: 80.1 µM
  TGI: > 100 µM
BT-549 breast
  GI50: 33.1 µM
  TGI: 91.2 µM
MALME-3M melanoma
  GI50: 13.5 µM
  TGI: 69.2 µM
MDA-MB-231 breast
  GI50: > 100 µM
  TGI: > 100 µM
NCI/ADR-RES ovarian
  GI50: 46.8 µM
  TGI: > 100 µM
SK-MEL-5 melanoma
  GI50: 18.1 µM
  TGI: 61 µM
NCI-H23 lung
  GI50: 36.7 µM
  TGI: > 100 µM
UACC-257 melanoma
  GI50: > 100 µM
  TGI: > 100 µM
OVCAR-5 ovarian
  GI50: 46.8 µM
  TGI: > 100 µM
MCF7 breast
  GI50: 22.7 µM
  TGI: > 100 µM
UO-31 renal
  GI50: 55.2 µM
  TGI: > 100 µM
IGROV1 ovarian
  GI50: 26.9 µM
  TGI: > 100 µM
SF-295 CNS
  GI50: 33.1 µM
  TGI: > 100 µM
SK-MEL-2 melanoma
  GI50: 18.6 µM
  TGI: > 100 µM
SK-MEL-28 melanoma
  GI50: 47.4 µM
  TGI: > 100 µM
HCT-116 colon
  GI50: 50 µM
  TGI: > 100 µM
EKVX NSCLC
  GI50: 65.6 µM
  TGI: > 100 µM
NCI-H460 lung
  GI50: 28.7 µM
  TGI: > 100 µM
MDA-MB-435
  GI50: 19.6 µM
  TGI: > 100 µM
UACC-62 melanoma
  GI50: 12.5 µM
  TGI: 57.5 µM
U251 CNS
  GI50: > 100 µM
  TGI: > 100 µM
NCI-H522 lung
  GI50: 20.8 µM
  TGI: 80 µM
SN12C renal
  GI50: 55.5 µM
  TGI: > 100 µM
HOP-62 NSCLC
  GI50: 55.5 µM
  TGI: > 100 µM
